# Data reported in patent publication US20240294545A1 (CSPC Zhongqi Pharmaceutical Technology (Shijiazhuang) Co., …, priority 2020, published 2024).
# Marks after values point to notes of the source that are not given here.
# Tests used:
# [1] = system: subcutaneous xenograft tumor of human non-small cell lung cancer cell line NCI-H441; test: NCI-H441 subcutaneous xenograft, combined with irinotecan liposome injection; format: in vivo, NU/NU mice; conditions: for D 17 TGI / D 17 TV (MEAN ± SD) / Tumor weight / Tumor weight inhibitory rate: compound 25 mg/kg intragastric + irinotecan liposome 2.5 mg/kg ip; for D 17 TGI / D 17 TV (MEAN ± SD): day 17; for Tumor weight / Tumor weight inhibitory rate: end of test d17
# Description: 6 Efficacy Test of the Compounds of the Present Disclosure Combined with Irinotecan Liposome Injection on Inhibiting the Growth of Subcutaneous Xenograft Tumor of Human Non-Small Cell Lung Cancer Cell Line NCI-H441
# 6.1 Experimental Animals: NU/NU Mice, SPF, Female, 20 to 30 g.
# Irinotecan liposome injection (HE072), 43 mg:10 mL, milky white liquid, batch No. B37191202, provided by Preparation Research Institute 2 from CSPC Zhongqi Pharmaceutical Technology (Shijiazhuang) Co., Ltd., diluted to an appropriate concentration with 5% glucose injection while testing.
# NCI-H441 cells, provided by Nanjing Kebai Biotechnology Co., Ltd.; 1640 culture medium (gibco Company):fetal bovine serum (Lanzhou Bailing)=90%:10%, 37° C., 5% CO2.
# NU/NU nude mice were subcutaneously inoculated with NCI-H441 human non-small cell lung cancer cells. When the mean tumor volume reached 170 to 172 mm^3 (15 days after inoculation), the animals were evenly divided into groups according to the tumor volume (d0), with 6 mice in each group. 2.5 mg/kg of HE072 was administered intraperitoneally once a week for 2 times. Vehicle control, 25 mg/kg of A-193, 25 mg/kg of A-182, and 25 mg/kg of AZD1390 were administered intragastrically once a day, from Monday to Thursday every week except Friday to Sunday, for 2 weeks (8 times). The tumor volume was measured twice a week, the body weight of mouse was weighed every day, and the data were recorded. The tumor volume (TV) was calculated according to the formula: TV=½×a×b2, wherein a and b represent the long and short diameters of tumor, respectively. Tumor growth inhibitory rate TGI (%)=[1−(Ti−T0)/(Vi−V0)]×100, wherein Ti represents the mean tumor volume of a given treatment group on a certain day; TO represents the mean tumor volume of this treatment group at the beginning of administration; Vi represents the mean tumor volume of the vehicle control group on a certain day (the same day as that in Ti); V0 represents the mean tumor volume of the vehicle control group at the beginning of administration. At the end of the test (d17), the animals were sacrificed, the tumors were stripped and weighed, and the tumor weight inhibitory rates were calculated.
# [2] = system: Human glioblastoma cell line LN-18; test: LN18 cell proliferation combined with radiotherapy (CTG assay); format: cell-based; conditions: Homo sapiens, LN-18, light or radiation study; LN18 cells, 1 Gy irradiation 1 h after compound, 6 days, CTG;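 note: readout is CTG luminescence proliferation not KAP1 phosphorylation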
# Description: 5 Test of the Inhibitory Activities of the Compounds of the Present Disclosure Combined with Radiotherapy on LN18 Cell Proliferation
# • Cell: Human glioblastoma cell line LN-18
# 5.2 Experimental Procedures
# • (1) Cell inoculation • 1) The cell culture fluid was preheated at 37° C. • 2) A complete culture medium of LN18 cells was prepared, at a ratio of DMEM medium:FBS=95:5 (V/V). • 3) Cells were digested with trypsin, collected to serve as a cell suspension, and counted, the cell suspension was then added into a 96-well plate at 1500 cells/well and 100 μL of cell fluid/well, and three parallel wells were set. • 4) After inoculated in the plate, the cells were cultured overnight under the condition of 37° C. and 5% CO2. • (2) Compound addition and incubation • 1) AZD1390 and tested compounds, respectively, were sequentially diluted 5 times with DMSO, starting from the concentration of 10 mM and yielding the concentrations of 10, 2, 0.4, 0.08, 0.016, 0.0032, 0.00064, 0.000128, and 0.0000256 mM in turn. The compound solutions at the above concentrations were diluted 5000 times with the complete culture medium. The final 2× concentrations were in order 2000, 400, 80, 16, 3.2, 0.64, 0.128, 0.0256, and 0.00512 nM. The vehicle control was 0.02% DMSO culture fluid. • 2) A complete culture medium containing 100 μL of the compound solution was added to each well, and the final concentrations of the compounds in the wells were in order 1000, 200, 40, 8, 1.6, 0.32, 0.064, 0.0128, and 0.00256 nM. The 0.01% DMSO culture fluid was contained in the vehicle control well. After incubated with compound for 1 h, the cells were irradiated at a dose of 1 Gy. • 3) After irradiation, the plate was put into an incubator and incubated under the condition of 37° C. and 5% CO2 for 6 days. Then detection was performed by adopting CTG assay (100 μL of liquid from each well was sucked out and discarded, and 50 μL of CTG reagent was added to each well, and incubated at room temperature for 30 min, and the luminescence intensity was detected). • (3) Data analysis • 1) The Luminescence signal (RLU) of each well was detected. • 2) Proliferation inhibitory activity was calculated according to the formula: % inhibitory activity=RLUtreatment/RLUAvg(Vehicle)*100. 5.3 the Inhibitory Activities of Compounds of the Present Disclosure Combined with Radiotherapy on LN18 Cell Proliferation
# ATM = ATM (Homo sapiens (Human), UniProt Q13315); test: Caliper mobility shift assay for ATM; format: biochemical; conditions: read-out: IC50 of inhibitory activity on ATM kinase
# Sequence of ATM (Q13315 whole entry): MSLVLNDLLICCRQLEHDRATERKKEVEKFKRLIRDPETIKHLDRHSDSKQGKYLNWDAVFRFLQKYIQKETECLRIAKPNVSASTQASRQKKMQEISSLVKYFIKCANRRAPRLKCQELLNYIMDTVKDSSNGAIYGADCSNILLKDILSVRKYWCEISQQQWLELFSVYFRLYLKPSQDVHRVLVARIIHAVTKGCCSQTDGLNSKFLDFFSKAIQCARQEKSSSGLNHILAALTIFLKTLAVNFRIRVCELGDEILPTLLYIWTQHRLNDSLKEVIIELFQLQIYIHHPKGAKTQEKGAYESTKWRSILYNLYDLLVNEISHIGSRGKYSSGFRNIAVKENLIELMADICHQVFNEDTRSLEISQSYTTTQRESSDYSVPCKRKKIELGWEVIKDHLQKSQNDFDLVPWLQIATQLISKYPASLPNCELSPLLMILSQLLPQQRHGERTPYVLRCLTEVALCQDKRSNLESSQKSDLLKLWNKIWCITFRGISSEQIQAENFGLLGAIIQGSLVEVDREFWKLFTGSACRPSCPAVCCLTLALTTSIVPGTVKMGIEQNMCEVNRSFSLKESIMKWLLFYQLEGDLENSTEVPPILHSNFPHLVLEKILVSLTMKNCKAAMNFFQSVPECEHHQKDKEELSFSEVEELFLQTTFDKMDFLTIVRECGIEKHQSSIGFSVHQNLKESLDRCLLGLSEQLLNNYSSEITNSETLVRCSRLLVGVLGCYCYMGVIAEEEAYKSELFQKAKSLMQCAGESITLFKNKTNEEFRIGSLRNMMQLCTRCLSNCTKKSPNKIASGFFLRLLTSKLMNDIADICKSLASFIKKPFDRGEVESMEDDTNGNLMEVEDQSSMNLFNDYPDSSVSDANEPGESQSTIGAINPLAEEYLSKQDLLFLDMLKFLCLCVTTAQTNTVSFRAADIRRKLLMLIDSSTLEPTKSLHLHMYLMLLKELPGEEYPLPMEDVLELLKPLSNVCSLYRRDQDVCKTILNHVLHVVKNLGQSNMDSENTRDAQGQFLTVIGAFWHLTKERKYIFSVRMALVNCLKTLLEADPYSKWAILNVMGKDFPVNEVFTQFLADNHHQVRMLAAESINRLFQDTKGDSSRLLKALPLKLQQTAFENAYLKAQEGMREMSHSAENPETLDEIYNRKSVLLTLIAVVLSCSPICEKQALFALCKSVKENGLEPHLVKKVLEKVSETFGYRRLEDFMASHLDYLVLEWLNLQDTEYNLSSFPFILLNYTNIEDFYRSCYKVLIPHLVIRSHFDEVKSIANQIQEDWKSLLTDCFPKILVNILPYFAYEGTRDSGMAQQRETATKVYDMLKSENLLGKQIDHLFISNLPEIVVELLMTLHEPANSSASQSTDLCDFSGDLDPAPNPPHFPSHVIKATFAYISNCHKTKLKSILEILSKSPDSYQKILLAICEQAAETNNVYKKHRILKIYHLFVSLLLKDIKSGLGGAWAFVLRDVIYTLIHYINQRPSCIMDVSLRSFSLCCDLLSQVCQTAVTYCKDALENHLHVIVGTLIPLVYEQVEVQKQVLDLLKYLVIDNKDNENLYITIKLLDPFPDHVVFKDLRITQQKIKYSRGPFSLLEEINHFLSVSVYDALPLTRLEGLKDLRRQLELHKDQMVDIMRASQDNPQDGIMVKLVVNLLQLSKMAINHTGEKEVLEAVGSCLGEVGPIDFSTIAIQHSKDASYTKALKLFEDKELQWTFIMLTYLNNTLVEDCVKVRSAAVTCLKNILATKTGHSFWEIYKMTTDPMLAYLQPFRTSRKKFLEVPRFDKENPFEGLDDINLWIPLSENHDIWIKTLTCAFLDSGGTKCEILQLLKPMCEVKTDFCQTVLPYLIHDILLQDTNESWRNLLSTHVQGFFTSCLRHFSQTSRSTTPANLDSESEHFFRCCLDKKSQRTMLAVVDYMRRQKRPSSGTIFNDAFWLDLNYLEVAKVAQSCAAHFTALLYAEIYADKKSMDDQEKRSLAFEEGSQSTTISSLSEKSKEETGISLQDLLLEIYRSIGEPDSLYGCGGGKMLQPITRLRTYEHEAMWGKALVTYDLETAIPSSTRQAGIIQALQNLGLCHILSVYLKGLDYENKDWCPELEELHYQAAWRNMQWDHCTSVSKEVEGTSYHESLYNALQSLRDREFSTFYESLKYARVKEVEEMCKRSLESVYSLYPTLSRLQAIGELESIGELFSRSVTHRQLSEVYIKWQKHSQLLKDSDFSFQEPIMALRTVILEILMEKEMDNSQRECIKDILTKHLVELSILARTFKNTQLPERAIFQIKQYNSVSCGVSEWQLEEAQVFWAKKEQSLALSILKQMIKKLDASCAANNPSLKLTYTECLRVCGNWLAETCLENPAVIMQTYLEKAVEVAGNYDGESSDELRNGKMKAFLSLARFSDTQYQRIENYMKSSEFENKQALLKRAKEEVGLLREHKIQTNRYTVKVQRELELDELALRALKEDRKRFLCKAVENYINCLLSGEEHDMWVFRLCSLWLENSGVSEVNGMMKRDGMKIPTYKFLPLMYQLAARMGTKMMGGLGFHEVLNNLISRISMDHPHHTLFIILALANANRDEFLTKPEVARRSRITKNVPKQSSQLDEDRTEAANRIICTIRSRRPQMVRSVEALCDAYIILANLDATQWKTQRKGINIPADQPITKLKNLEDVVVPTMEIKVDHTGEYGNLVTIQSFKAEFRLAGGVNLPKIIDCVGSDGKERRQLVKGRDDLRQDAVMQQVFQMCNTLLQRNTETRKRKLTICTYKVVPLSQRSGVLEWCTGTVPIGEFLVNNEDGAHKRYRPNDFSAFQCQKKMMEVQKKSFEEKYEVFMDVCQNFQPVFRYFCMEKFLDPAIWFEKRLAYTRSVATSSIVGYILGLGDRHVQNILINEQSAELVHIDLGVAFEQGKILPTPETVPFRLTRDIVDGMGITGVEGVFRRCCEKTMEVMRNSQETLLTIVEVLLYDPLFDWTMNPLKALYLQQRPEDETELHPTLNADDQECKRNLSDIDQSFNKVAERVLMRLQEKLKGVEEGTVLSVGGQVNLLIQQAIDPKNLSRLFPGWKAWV
# Description: 1.2 Determination of the Inhibitory Activities of Compounds on ATM: Caliper Mobility Shift Assay for ATM
# To a 96-well plate, 98 μL of DMSO and 2 μL of the 10 mM stock solution were added and mixed evenly so that the concentration of the solution was 200 μM.
# Based on the inhibitory rates of the compound at different concentrations, IC50 was calculated according to the formula: Y=Bottom+(Top−Bottom)/(1+(IC50/X)^HillSlope).
SMILES,D 17 TGI [1] [%],D 17 TV (MEAN ± SD) [1],Tumor weight [1] [g],Tumor weight inhibitory rate [1] [%],IC50 [2] [nM],IC50 (ATM) [nM],"inhibitory effect on tumor volume and tumor weight, in words ([1]; combined with irinotecan liposome injection, compared with AZD1390)"
"CC(C)n1c(=O)n(C)c2cnc3cc(F)c(-c4ccc(OCCCN5CCCCC5)nc4)cc3c21 [AZD1390, reference compound]",60.3,342.8 ± 110.6*** mm^3,0.32 ± 0.09,45.3,2.79,0.2,–
"Cn1c(=O)n2c3c4c(c(-c5ccc(OCCCN6CCCCC6)nc5)c(F)cc4ncc31)NCC2(C)C [Example A-193, 6-fluoro-2,10,10-trimethyl-7-(6-(3-(piperidin-1-yl)propoxy)pyridin-3-yl)-2,8,9,10-tetrahydro-1H-2,4,8,10a-tetraazanaphtho[2,1,8-cde]azulen-1(2H)-one]",87.5,225.9 ± 69.4***^### mm^3,0.24 ± 0.06,60.2,10.1,0.65,higher than those of AZD1390
